Consider one molecule from patent publication US5187168A, “Substituted quinazolines as angiotensin II antagonists” (American Home Products Corporation, priority 1991, dated 1993).

Each structure is given as a SMILES string.

The subject of the experiment is A II-infused rat. In words: A II-infused rat model (ganglion-blocked, intraduodenal dosing), antihypertensive action. In kind it is in vivo. The settings on record: 10 mg/kg id, one half hour post-administration. As to the method:
In accordance with their ability to antagonize angiotensin II, the compounds of this invention show antihypertensive action in the following A II-infused rat model. Rats are anesthetized with Dial-Urethane (0.60 mL/kg, ip) and the trachea cannulated with PE 240. Either one femoral artery and both femoral veins or the carotid artery and the corresponding jugular vein are cannulated with PE 50. If the jugular vein is cannulated, two cannulas are placed in the one vein. The initial portion of the duodenum (just distal to the stomach) is cannulated with PE 50 via a small midline incision. Arterial pressure and heart rate are measured from the arterial cannula. Ten to 15 min are allowed following surgery for stabilization of arterial pressure. Ganglion blockade is then produced by intravenous administration of mecamylamine at 3 mg/kg (1 mL/kg of a 3 mg/mL solution). Ganglion blockade causes a fall in arterial pressure of about 50 mmHg. Mecamylamine is given every 90 min throughout the remainder of the experiment. An A II infusion is then begun into the other venous cannula at […] (at 9.6 uLmin). The A II infusion returns arterial pressure to or slightly above the control level. Once arterial pressure has stabilized with the A II infusion, baseline values for mean arterial pressure (MAP) and heart rate are taken. […]

`O=C(O)c1ccccc1-c1ccc(CNc2nc(C(F)(F)F)nc3ccsc23)cc1` [Example 36]: the “lowering of the A II dependent blood pressure (average)” value amounted to 45%.
